# Assays:
# BACE2 [1] = biological target: T1, BACE2 (Homo sapiens, UniProt Q9Y5Z0); experiment: Assay A: binding studies using SPR based methods, immobilised BACE2; details: CM5 chip, immobilised BACE2 enzyme ectodomain, acetate buffer pH 4.6, 4% DMSO
# T1 construct: BACE2 enzyme ectodomain (derived from plasmid “pET17b-T7-hu proBACE2”); T7 (N); made in house
# T1 sequence (Q9Y5Z0 63-473 limits assumed): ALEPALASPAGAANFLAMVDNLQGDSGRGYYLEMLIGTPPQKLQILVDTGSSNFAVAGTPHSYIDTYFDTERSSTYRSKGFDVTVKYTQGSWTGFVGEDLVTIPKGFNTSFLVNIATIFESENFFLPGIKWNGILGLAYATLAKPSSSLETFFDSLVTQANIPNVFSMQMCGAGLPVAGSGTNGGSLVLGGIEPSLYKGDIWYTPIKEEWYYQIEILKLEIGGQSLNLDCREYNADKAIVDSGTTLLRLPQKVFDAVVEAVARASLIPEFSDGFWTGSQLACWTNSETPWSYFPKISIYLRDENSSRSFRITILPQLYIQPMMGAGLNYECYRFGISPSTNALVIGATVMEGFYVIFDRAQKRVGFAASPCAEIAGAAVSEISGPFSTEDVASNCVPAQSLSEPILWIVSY
# BACE2 [2] = biological target: T2, BACE2 (Rattus norvegicus, UniProt Q6IE75); experiment: Assay for BACE inhibition by measuring cellular TMEM27 cleavage; type: cell-based; details: INS-TMEM27 (INS1e-derived) cells, ELISA of shed human TMEM27 in supernatant;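 also: inhibitor added 2 h before doxycycline-induced hTMEM27 expression, supernatant collected after further 46 h, endogenous BACE2 activity read as reduced TMEM27 shedding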
# T2 construct: endogenous cellular BACE2 in the Ins1e rat cell line; endogenous in cells; host or cells: INS-TMEM27 (INS1e-derived rat cell line with doxycycline-inducible full-length hTMEM27)
# T2 sequence (Q6IE75 63-514): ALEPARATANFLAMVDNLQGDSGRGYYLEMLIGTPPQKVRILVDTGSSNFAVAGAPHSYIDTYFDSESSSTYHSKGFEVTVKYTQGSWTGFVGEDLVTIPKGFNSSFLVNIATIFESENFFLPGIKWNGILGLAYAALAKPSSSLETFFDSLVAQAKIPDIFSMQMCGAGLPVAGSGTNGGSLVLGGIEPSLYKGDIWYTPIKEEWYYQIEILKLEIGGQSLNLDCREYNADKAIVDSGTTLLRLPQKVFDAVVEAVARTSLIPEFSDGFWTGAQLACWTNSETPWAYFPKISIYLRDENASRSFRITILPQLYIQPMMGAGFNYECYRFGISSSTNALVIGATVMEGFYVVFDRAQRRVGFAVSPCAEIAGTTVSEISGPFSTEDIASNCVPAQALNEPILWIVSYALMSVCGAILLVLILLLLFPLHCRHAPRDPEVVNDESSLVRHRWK
# BACE1 [3] = biological target: T3, BACE1 (Homo sapiens, UniProt P56817); experiment: Cellular Abeta-lowering assay; type: cell-based; parameters: endogenous in cells; host or cells: HEK293 stably transfected with human APP695 wt; details: HEK293 cells stably transfected with human APP wt (APP695), Aβ40 ELISA of supernatant after 18-20 hrs
# BACE1 [4] = biological target: T3, BACE1; experiment: Assay A: binding studies using SPR based methods, immobilised BACE1; parameters: 6his-tagged full length BACE 1 expressed in SF9 cells; 6His; made in house; host or cells: SF9 insect cells; details: CM5 chip, immobilised 6his-tagged full length BACE 1, acetate buffer pH 4.6, 4% DMSO;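 also: KD from a 1:1 kinetic fit (koff/kon) of real-time association and dissociation curves, or for fast binders from end-of-association equilibrium responses plotted against log concentration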
# T3 sequence (P56817 46-501): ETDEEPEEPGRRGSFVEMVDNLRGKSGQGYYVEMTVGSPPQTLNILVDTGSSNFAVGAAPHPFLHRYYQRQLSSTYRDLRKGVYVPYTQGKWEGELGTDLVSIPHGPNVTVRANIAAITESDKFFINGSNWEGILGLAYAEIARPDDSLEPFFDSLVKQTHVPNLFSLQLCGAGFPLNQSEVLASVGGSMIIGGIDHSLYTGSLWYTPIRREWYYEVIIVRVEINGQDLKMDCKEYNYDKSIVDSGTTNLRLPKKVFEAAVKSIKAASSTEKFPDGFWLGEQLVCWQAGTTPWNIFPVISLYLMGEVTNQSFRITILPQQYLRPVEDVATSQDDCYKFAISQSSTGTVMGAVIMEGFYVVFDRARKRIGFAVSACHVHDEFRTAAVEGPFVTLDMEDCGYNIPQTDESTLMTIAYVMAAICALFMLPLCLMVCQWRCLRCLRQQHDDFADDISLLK
SMILES,Kd (BACE2 [1]),IC50 (BACE2 [2]),IC50 (BACE1 [3]),Kd (BACE1 [4])
"CC1(c2cc(NC(=O)C(F)(F)C(F)(F)F)ccc2F)COCC(N)=N1 (racemic) [Example 26, (RS)—N-[3-(5-Amino-3-methyl-3,6-dihydro-2H-[1,4]oxazin-3-yl)-4-fluoro-phenyl]-2,2,3,3,3-pentafluoro-propionamide]",,2230 nM,375 nM,
"Cc1nc(C(=O)Nc2cccc(C3(C)COCC(N)=N3)c2)co1 (racemic) [Example 12, (RS)-2-methyl-oxazole-4-carboxylic acid [3-(5-amino-3-methyl-3,6-dihydro-2H-[1,4]oxazin-3-yl)-phenyl]-amide]",,17 nM,20 nM,
"CC1(C)OCC(N)=N[C@]1(C)c1cc(NC(=O)C2(C(F)(F)F)CC2)ccc1F [Example 55, 1-trifluoromethyl-cyclopropanecarboxylic acid [3-((R)-5-amino-2,2,3-trimethyl-3,6-dihydro-2H-[1,4]oxazin-3-yl)-4-fluoro-phenyl]-amide]",2300 nM,46 nM,,6400 nM
"NC1=NC(c2cc(NC(=O)c3ccc(OCC(F)(F)F)cn3)ccc2F)(C2CC2)COC1 (racemic) [Example 23, (RS)-5-(2,2,2-Trifluoro-ethoxy)-pyridine-2-carboxylic acid [3-(5-amino-3-cyclopropyl-3,6-dihydro-2H-[1,4]oxazin-3-yl)-4-fluoro-phenyl]-amide]",10800 nM,,160 nM,309 nM
CC1(c2cc(NC(=O)C3(C(F)(F)F)CC3)ccc2F)COCC(N)=N1 (racemic) [Example 57],1800 nM,320 nM,,> 10000 nM
"CC1(c2cc(NC(=O)c3ccc(-c4cnco4)cc3)ccc2F)COCC(N)=N1 (racemic) [Example 52, (RS)—N-[3-(5-amino-3-methyl-3,6-dihydro-2H-[1,4]oxazin-3-yl)-4-fluoro-phenyl]-4-oxazol-5-yl-benzamide]",> 10000 nM,,1180 nM,194 nM
"CC1(c2cccc(NC(=O)c3ncc(F)cc3F)c2)COCC(N)=N1 (racemic) [Example 1, (RS)-3,5-Difluoro-pyridine-2-carboxylic acid [3-(5-amino-3-methyl-3,6-dihydro-2H-[1,4]oxazin-3-yl)-phenyl]-amide]",44 nM,21 nM,,

# Results, then the molecule that gave them:
Kd (BACE2 [1]),IC50 (BACE2 [2]),IC50 (BACE1 [3]),Kd (BACE1 [4]),SMILES
4 nM,2 nM,,,"C[C@@]1(c2cc(NC(=O)c3ccc(Cl)cn3)ccc2F)COCC(N)=N1 [Example 21, (R)-5-chloro-pyridine-2-carboxylic acid [3-(5-amino-3-methyl-3,6-dihydro-2H-[1,4]oxazin-3-yl)-4-fluoro-phenyl]-amide]"
3 nM,4 nM,,,"C[C@@]1(c2cc(NC(=O)c3ncc(Cl)cc3Cl)ccc2F)COCC(N)=N1 [Example 34, 3,5-dichloro-pyridine-2-carboxylic acid [3-((R)-5-amino-3-methyl-3,6-dihydro-2H-[1,4]oxazin-3-yl)-4-fluoro-phenyl]-amide]"
,320 nM,1130 nM,,"CC1(c2cc(NC(=S)c3ccc(Cl)cc3)ccc2F)COCC(N)=N1 (racemic) [Example 27, (RS)—N-[3-(5-Amino-3-methyl-3,6-dihydro-2H-[1,4]oxazin-3-yl)-4-fluoro-phenyl]-4-chloro-thiobenzamide]"
8 nM,6 nM,,,"CC1(c2cc(NC(=O)c3ccc(Cl)cn3)ccc2F)COCC(N)=N1 (racemic) [Example 20, (RS)-5-chloro-pyridine-2-carboxylic acid [3-(5-amino-3-methyl-3,6-dihydro-2H-[1,4]oxazin-3-yl)-4-fluoro-phenyl]-amide]"
2550 nM,,190 nM,208 nM,"C[C@@]1(c2cc(NC(=O)c3ccc(C#N)cc3F)ccc2F)COCC(N)=N1 [Example 42, N-[3-((R)-5-amino-3-methyl-3,6-dihydro-2H-[1,4]oxazin-3-yl)-4-fluoro-phenyl]-4-cyano-2-fluoro-benzamide]"

# From US20130196984A1, “3-AMINO-5-PHENYL-56-DIHYDRO-2H-[1,4]OXAZINES” (Siena Biotech S.p.A., priority 2009, published 2013)
